Among the data in PubChem BioAssay (NCI) are TGI and GI50 values, retold here.

Some test systems named below: KM12 colon; RPMI-8226 leukemia; OVCAR-5 ovarian; CAKI-1 renal; LOX IMVI melanoma; SF-295 CNS; RXF 393 renal; HL-60(TB) leukemia; SF-268 CNS; NCI-H23 lung.
Assay in all cases: DTP human tumour cell line panel, 48 h

Each structure is given as a SMILES string.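 How tested: cells in 96-well plates exposed to compound for 48 hours at five concentrations. Here, GI50 denotes the concentration required for 50% inhibition of growth. The concentration for full growth arrest is given as TGI.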 A value given as a limit tells only on which side of the number the result lay.

For orientation: TGI means the concentration at which net growth stops. A lower TGI goes with more potent growth arrest. Regarding `COc1c(Cl)cc(NC(=S)C#N)cc1Cl`, the concentration for total growth inhibition (TGI) with KM12 colon was 85.6 µM; in the assay on RPMI-8226 leukemia it was above 58.7 µM; in the assay on OVCAR-5 ovarian, above 100 µM; in the assay with CAKI-1 renal, 58.4 µM; with LOX IMVI melanoma, 38.8 µM; in the assay with SF-295 CNS, above 79.9 µM. Besides, the total growth inhibition concentration (TGI) with RXF 393 renal is above 81.4 µM; in the assay on HL-60(TB) leukemia, above 100 µM; in the assay with SF-268 CNS it was above 89.9 µM; with NCI-H23 lung, 44.6 µM.

What is called GI50 is the concentration giving 50% growth inhibition. As for `COc1ccc(C(=O)c2cc3c(N)c(C(=O)Nc4cccc5ccccc45)sc3nc2C)cc1`, the concentration for 50% growth inhibition (GI50) was 215 nM in the assay on KM12 colon; 184 nM in the assay with RPMI-8226 leukemia; 285 nM in the assay on OVCAR-5 ovarian; 243 nM in the assay with CAKI-1 renal; 287 nM in the assay on LOX IMVI melanoma; 172 nM with SF-295 CNS. The GI50 was 88 nM with RXF 393 renal, 150 nM with HL-60(TB) leukemia, 529 nM in the assay on SF-268 CNS and 334 nM in the assay with NCI-H23 lung. The TGI with KM12 colon, with OVCAR-5 ovarian, in the assay on CAKI-1 renal, in the assay with LOX IMVI melanoma, with SF-295 CNS and in the assay with RXF 393 renal was above 50 µM in each case. Besides, the concentration for total growth inhibition (TGI) in the assay on HL-60(TB) leukemia is 0.503 µM; in the assay with SF-268 CNS it was above 50 µM; with NCI-H23 lung, above 50 µM.

With `O=CN/C=C/c1ccc(O)c(O)c1`, the TGI in the assay with KM12 colon, with RPMI-8226 leukemia, in the assay with OVCAR-5 ovarian, in the assay on CAKI-1 renal, in the assay on LOX IMVI melanoma and in the assay on SF-295 CNS was above 100 µM throughout. For the same compound, the TGI with RXF 393 renal, in the assay on HL-60(TB) leukemia, in the assay with SF-268 CNS and in the assay with NCI-H23 lung was above 100 µM throughout.

As for `COc1ccc(C(C#N)Cc2cc(OC)c(OC)c(OC)c2)cc1` (stereo not drawn), the TGI with KM12 colon was above 100 µM; in the assay with RPMI-8226 leukemia, above 100 µM; in the assay on OVCAR-5 ovarian, above 100 µM; with CAKI-1 renal, above 100 µM; in the assay on LOX IMVI melanoma it was above 100 µM; in the assay with SF-295 CNS, 54.4 µM. Further, the TGI was 45.2 µM with RXF 393 renal, 64.3 µM in the assay on HL-60(TB) leukemia and above 100 µM in the assay with SF-268 CNS.

For the compound `Cc1ccc(Nc2nc(C)c(C(/C=C/c3ccc(/C=C/C(=N/NC(=O)C[n+]4ccccc4)c4sc(Nc5ccc(C)cc5[N+](=O)[O-])nc4C)cc3)=N\NC(=O)C[n+]3ccccc3)s2)c([N+](=O)[O-])c1`, the concentration for total growth inhibition (TGI) with KM12 colon, in the assay with OVCAR-5 ovarian, in the assay on CAKI-1 renal, in the assay with LOX IMVI melanoma, in the assay on SF-295 CNS and in the assay on RXF 393 renal was above 100 µM throughout. Moreover, the TGI in the assay on HL-60(TB) leukemia, in the assay with SF-268 CNS and in the assay with NCI-H23 lung was above 100 µM in each case.

For `Cc1[nH]c2ccccc2c1C1Cc2ccccc2N1C(=O)/C=C/C(=O)O` (stereo not drawn), the concentration for total growth inhibition (TGI) with KM12 colon, with OVCAR-5 ovarian, in the assay with CAKI-1 renal, in the assay on LOX IMVI melanoma, in the assay on SF-295 CNS and with RXF 393 renal was above 100 µM in each case. Besides, the total growth inhibition concentration (TGI) in the assay with HL-60(TB) leukemia, with SF-268 CNS and in the assay on NCI-H23 lung was above 100 µM each time.

Take `CC1=C2C(=CC(C)(C)C2O)C(=O)C(C)(O)C12CC2` (stereo not drawn): the TGI is 0.109 µM in the assay with KM12 colon; 0.0433 µM in the assay with OVCAR-5 ovarian; 0.0315 µM in the assay on CAKI-1 renal; 0.025 µM with LOX IMVI melanoma; 0.0342 µM in the assay with SF-295 CNS; 0.0194 µM with RXF 393 renal. For the same compound, the total growth inhibition concentration (TGI) was found to be 0.0149 µM with HL-60(TB) leukemia, 0.0667 µM in the assay on SF-268 CNS and 0.0234 µM in the assay with NCI-H23 lung.

`COc1ccc(C2SC(C)C(=O)N2NC(=O)C(O)c2ccccc2)cc1OC` (stereo not drawn): the GI50 in the assay with KM12 colon, in the assay with RPMI-8226 leukemia, in the assay on OVCAR-5 ovarian, in the assay with CAKI-1 renal, in the assay with LOX IMVI melanoma and in the assay with SF-295 CNS was above 100000 nM each time. In addition, the GI50 with RXF 393 renal, with HL-60(TB) leukemia and with SF-268 CNS was above 100000 nM in each case. For the same compound, the total growth inhibition concentration (TGI) with KM12 colon, in the assay on RPMI-8226 leukemia, with OVCAR-5 ovarian, in the assay with CAKI-1 renal, with LOX IMVI melanoma and with SF-295 CNS was above 100 µM throughout. For the same compound, the TGI with RXF 393 renal, in the assay with HL-60(TB) leukemia and with SF-268 CNS was above 100 µM each time.

For `CCOC(=O)NC(=O)c1cn(CCCCCCOC(=O)NCCCCCCNC(=O)OCCCCCCn2cc(C(=O)NC(=O)OCC)c(=O)[nH]c2=O)c(=O)[nH]c1=O`, the concentration for total growth inhibition (TGI) in the assay with KM12 colon, in the assay with RPMI-8226 leukemia, in the assay with CAKI-1 renal, in the assay with LOX IMVI melanoma, in the assay on SF-295 CNS and in the assay on RXF 393 renal was above 100 µM throughout. Further, the TGI in the assay with HL-60(TB) leukemia and in the assay with SF-268 CNS was above 100 µM in each case.

On to `CN1c2ccccc2N(C)C23N(C)c4ccccc4N(C)C12N(C)c1ccccc1N3C` (stereo not drawn), for which the TGI with KM12 colon, with OVCAR-5 ovarian, in the assay with CAKI-1 renal, with LOX IMVI melanoma, with SF-295 CNS and in the assay with RXF 393 renal was above 100 µM each time. The TGI in the assay on HL-60(TB) leukemia, in the assay with SF-268 CNS and with NCI-H23 lung was above 100 µM in each case.

For `[N-]=[N+]=NC(CI)c1cn([C@H]2C[C@H](O)[C@@H](CO)O2)c(=O)[nH]c1=O` (stereo partly drawn), the TGI in the assay on KM12 colon, with RPMI-8226 leukemia, in the assay on OVCAR-5 ovarian, in the assay on CAKI-1 renal, in the assay with LOX IMVI melanoma and in the assay with SF-295 CNS was above 100 µM in each case. The TGI in the assay on RXF 393 renal, in the assay with HL-60(TB) leukemia and with NCI-H23 lung was above 100 µM throughout.

As to `COc1ccc(/C=C2\S/C(=N/Nc3nc(-c4ccccc4)cs3)NC2=O)cc1OC`, the TGI was 82.2 µM in the assay on KM12 colon; above 100 µM with OVCAR-5 ovarian; above 100 µM in the assay with CAKI-1 renal; 65.6 µM with LOX IMVI melanoma; 86.3 µM in the assay on SF-295 CNS; 52 µM in the assay on RXF 393 renal. For the same compound, the TGI was 22 µM in the assay on HL-60(TB) leukemia, above 100 µM in the assay on SF-268 CNS and 69.4 µM with NCI-H23 lung.
